Measurements taken from US11446270B2, “Leonurine crystal and use thereof in preparation of insulin sensitizer, hypoglycemic drug and lipid-lowering drug” (ZHUHAI HENGQIN NEW DISTRICT ZHONGZHU ZHENGTAI MEDICAL …, priority 2017, dated 2022).
Entries after “also recorded” stand apart in the source; their conditions may differ.

Tests used:
[1] = Accelerated stability test of leonurine crystal forms; type: physicochemical; conditions: for Crystal stability: 70% RH, 10 days
Source text: In the invention, the dominant medicinal crystal form was also screened by the accelerated stability experimental method, and observed the transformation among the various crystal forms.

Sprague-Dawley male rats = assay: Chronic continuous administration for 7 days, insulin sensitivity test in rats; type: in vivo; conditions: rat, vs control, listed as leonurine crystal form A
Experimental: Twenty Sprague-Dawley male rats (body weight 180-220 g) were randomly divided into 4 groups, give control solvent and three different doses of leonurine crystal form A respectively. The control solvent group was given an equal volume of DMSO, and the treatment groups were administered at three doses of 30 mg/kg, 60 mg/kg and 120 mg/kg respectively, 5 rats per group, where the leonurine crystal form A was dissolved in DMSO at concentrations of 30 mg/ml, 60 mg/ml and 120 mg/ml respectively. The volume of solvent used per rat is one millilitre per kilogram of body weight. The rats were administered intragastrically with the drugs or control solvent once a day for 7 consecutive days, and performing insulin sensitivity test on the 7th day. The rats were treated with the drugs or control solvent on the day of the test, and weighed before administration, then taking blood from tail vein to measure blood glucose. Each rat was tested for insulin sensitivity 1 hour after administration of the drugs or control solvent, and the rats were not fed food for 4 hours before the insulin sensitivity test to make them fasted but still given water. The insulin dose in the insulin sensitivity test is 0.75 units per kilogram of body weight, and insulin was injected through intraperitonealion. Blood glucose was measured before injection and at 15, 30, 60, 90, and 120 minutes after injection. The data were analyzed by SPSS statistical software (version 11.5), and the results were expressed as mean ±standard error of the mean (mean±SEM). Multiple group comparisons were tested by one-way analysis of variance (ANOVA). P<0.05 was considered as statistically significant.

[2] = 40° C., relative humidity 60%-80%, 10-day stability test, listed as leonurine crystal form A

Crystal stability ([1]; 40° C.): remain unchanged
Crystal stability ([1]; 40° C., listed as A): stable
crystal transformation behavior [1, 2]: no crystal transformation behavior
hygroscopicity (in words) [1, 2]: not obvious
stability in accelerating experiments ([1]; 40° C./75% RH): most stable
SMILES: COc1cc(C(=O)OCCCCNC(=N)N)cc(OC)c1O [crystal form A, 4-guanidino-1-butyl 4-hydroxy-3,5-dimethoxybenzoate]
insulin sensitivity curve (Sprague-Dawley male rats; 30 mg/kg/d for 7 days, 30 minute time point, 30 mg/kg/day): increased insulin sensitivity; also recorded: decreased significantly
insulin sensitivity curve (Sprague-Dawley male rats; 30 mg/kg/d for 7 days, 60 minute time point, 30 mg/kg/day): increased insulin sensitivity; also recorded: decreased significantly
insulin sensitivity curve (Sprague-Dawley male rats; 30 mg/kg/d for 7 days, 90 minute time point, 30 mg/kg/day): increased insulin sensitivity; also recorded: decreased significantly
insulin sensitivity curve (Sprague-Dawley male rats; 60 mg/kg/d for 7 days, 30 minute time point, 60 mg/kg/day): increased insulin sensitivity; also recorded: decreased significantly
insulin sensitivity curve (Sprague-Dawley male rats; 60 mg/kg/d for 7 days, 60 minute time point, 60 mg/kg/day): increased insulin sensitivity; also recorded: decreased significantly
insulin sensitivity curve (Sprague-Dawley male rats; 60 mg/kg/d for 7 days, 90 minute time point, 60 mg/kg/day): increased insulin sensitivity; also recorded: decreased significantly
insulin sensitivity curve (Sprague-Dawley male rats; 120 mg/kg/d for 7 days, 60 minute time point, 120 mg/kg/day): increased insulin sensitivity; also recorded: decreased significantly
